In patent US8426429B2, “2-amino-quinazoline derivatives useful as inhibitors of β-secretase (BACE)” (Jansssen Pharmaceutica N.V., priority 2004, dated 2013):

Columns and labels:
[1] = target: T1, β-secretase (BACE) (Homo sapiens, UniProt P56817); experiment: BACE % Inhibition Assay ((Aedens)-[…]-(Dabcyl K-amide) substrate); format: biochemical; conditions: % error ±10%
T1 construct: purchased Panvera
Experimental: The substrate stock solution was prepared in DMSO as a 10 mg/mL solution. The substrate working solution was prepared by diluting the 10 mg/mL stock solution with substrate assay buffer to a final concentration of […]. The β-secretase (BACE) working solution was prepared by diluting a 0.83 mg/mL BACE stock solution with enzyme assay buffer to a final concentration of 4 μg/mL.
Test compounds were dissolved in DMSO to 10 mM.
The screening procedure for this assay was as follows: 15 μL of BACE working solution was pipetted into each well of a 96-well plate. To each well was then pipetted 2 μL of test compound at the selected concentration. Test compound and BACE were then mixed with a pipettor and incubated for 20 min at room temperature. To each well was then added 10 μL of the substrate working solution. The plates were then incubated for 1 hour at room temperature.
The procedure for the blank was as follows. 15 μL of assay buffer was pipetted into each well to be used as a blank control. To each well was then added 2 μL of vehicle and 10 μL of substrate working solution. The plates were then incubated for 1 hour at room temperature.
The procedure for the positive control was as follows: 15 μl of BACE working solution was pipetted into each well to be used as a positive control. To each well was then pipetted 2 μL of vehicle. Vehicle and BACE were then mixed with a pipettor and incubated for 20 min at room temperature. To each well was then added 10 μL of the substrate working solution. The plates were the incubated for 1 hour at room temperature.
For test compounds, % inhibition was determined at each concentration as follows: […]

[2] = target: T1, β-secretase (BACE); experiment: BACE FS1 % Inhibition Assay; format: biochemical
Outline: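 Percent inhibition per compound concentration was referenced to vehicle-treated enzyme and no-enzyme wells. Enzyme at a 4 μg/mL working stock plus compound was mixed for 20 min at room temperature before the FS1 substrate (300 μg/mL working stock) was added for a 1 h room-temperature reaction.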

T1 sequence (P56817 46-501): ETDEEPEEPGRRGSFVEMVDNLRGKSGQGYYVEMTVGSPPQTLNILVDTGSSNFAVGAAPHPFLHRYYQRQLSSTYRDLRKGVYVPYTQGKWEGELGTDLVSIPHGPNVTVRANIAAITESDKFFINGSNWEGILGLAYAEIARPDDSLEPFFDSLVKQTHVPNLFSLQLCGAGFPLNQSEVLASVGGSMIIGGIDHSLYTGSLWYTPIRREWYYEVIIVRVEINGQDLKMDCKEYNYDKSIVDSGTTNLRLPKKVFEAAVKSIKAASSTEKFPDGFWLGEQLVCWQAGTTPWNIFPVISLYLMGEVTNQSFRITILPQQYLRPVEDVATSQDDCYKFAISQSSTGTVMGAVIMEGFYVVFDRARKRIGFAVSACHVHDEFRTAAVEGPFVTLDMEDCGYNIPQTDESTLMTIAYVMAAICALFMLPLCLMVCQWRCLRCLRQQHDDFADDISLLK

SMILES	% Inhibition ([1]; 3 μM compound) [%]	% Inhibition (FS) ([2]; 3 μM test compound) [%]	% Inhibition (FS) ([2]; 0.3 μM test compound) [%]	% Inhibition (FS) ([2]; 1 μM test compound) [%]	also measured
CCCC(CNC(=O)C1CCCCC1)N1Cc2cc(Oc3ccccc3)ccc2N=C1N (centres unmarked) [Compound 343]	118	–	–	–	% Inhibition ([1]; 0.3 μM compound): 81%; % Inhibition ([1]; 1 μM compound): 101%
CCCCC(CC)C(=O)NCc1cccc(CN2Cc3cc(Oc4ccccc4)ccc3N=C2N)c1 (centres unmarked) [Compound 339]	<30	–	–	–	% Inhibition ([1]; 0.3 μM compound): <30%; % Inhibition ([1]; 1 μM compound): <30%
CN(C(=O)c1cccc(N2Cc3cc(Oc4ccccc4)ccc3N=C2N)c1)C1CCCCC1 [Compound 94]	<30	–	–	–	% Inhibition ([1]; 10 μM compound): <30%
CN(C(=O)c1ccc(CN2Cc3cc(Oc4ccccc4)ccc3N=C2N)cc1)C1CCCCC1 [Compound 97]	<30	–	–	–	% Inhibition ([1]; 10 μM compound): 53%
CCCC(CCC)C(=O)NCc1cccc(CN2Cc3cc(Oc4ccccc4)ccc3N=C2N)c1 [Compound 338]	<30	–	–	–	% Inhibition ([1]; 0.3 μM compound): <30%; % Inhibition ([1]; 1 μM compound): <30%
CC(C)(C)C(=O)NCC(C1CCCCC1)N1Cc2cc(Oc3ccccc3)ccc2N=C1N (centres unmarked) [Compound 317]	–	–	–	–	% Inhibition ([1]; 0.3 μM compound): <30%; % Inhibition ([1]; 1 μM compound): 66%
NC1=Nc2ccc(Oc3ccccc3)cc2CN1C(CCNC(=O)C1CCCC1)C1CCCCC1 (centres unmarked) [Compound 392]	120	–	–	–	% Inhibition ([1]; 0.3 μM compound): 75%; % Inhibition ([1]; 1 μM compound): 116%
CC(C)(C)OC(=O)N1CCC(N2Cc3cc(Oc4ccccc4)ccc3N=C2N)C1 (centres unmarked) [Compound 93]	<30	–	–	–	% Inhibition ([1]; 10 μM compound): <30%
NC1=Nc2ccc(Oc3ccccc3)cc2CN1Cc1cccc(CNC(=O)C(c2ccccc2)c2ccccc2)c1 [Compound 337]	<30	–	–	–	% Inhibition ([1]; 0.3 μM compound): <30%; % Inhibition ([1]; 1 μM compound): <30%
Cc1ccc(S(=O)(=O)NCCN2Cc3cc(Oc4ccccc4)ccc3N=C2N)cc1 [Compound 109]	<30	–	–	–	% Inhibition ([1]; 10 μM compound): 58%
CN(C(=O)[C@@H]1CCCN1C(=O)CN1Cc2cc(Oc3ccccc3)ccc2N=C1N)C1CCCCC1 [Compound 88]	<30	–	–	–	% Inhibition ([1]; 10 μM compound): <30%
CN(C(=O)C1CCC(CN2Cc3cc(Oc4ccccc4)ccc3N=C2N)CC1)C1CCCCC1 (centres unmarked) [Compound 100]	<30	–	–	–	% Inhibition ([1]; 10 μM compound): <30%
CCCCC(CC)C(=O)NCC(c1ccccc1)N1Cc2cc(Oc3ccccc3)ccc2N=C1N (centres unmarked) [Compound 341]	72	–	–	–	% Inhibition ([1]; 0.3 μM compound): <30%; % Inhibition ([1]; 1 μM compound): <30%
CN(C(=O)c1cc(CN2Cc3cc(Oc4ccccc4)ccc3N=C2N)ccn1)C1CCCCC1 [Compound 89]	77	–	–	–	% Inhibition ([1]; 10 μM compound): 81%
CC(C)(C)OC(=O)NCC(C1CCCCC1)N1Cc2cc(Oc3ccccc3)ccc2N=C1N (centres unmarked) [Compound 367]	111	–	–	–	% Inhibition ([1]; 0.3 μM compound): <30%; % Inhibition ([1]; 1 μM compound): 80%
CN(C(=O)[C@H]1CCCC[C@H]1N1Cc2cc(Oc3ccccc3)ccc2N=C1N)C1CCCCC1 [Compound 81]	<30	–	–	–	% Inhibition ([1]; 10 μM compound): <30%
NC1=Nc2ccc(Oc3ccccc3)cc2CN1C(CNC(=O)C1(c2ccc(Cl)cc2)CCCC1)C1CCCCC1 (centres unmarked) [Compound 390]	–	–	–	–	% Inhibition ([1]; 0.3 μM compound): <30%; % Inhibition ([1]; 1 μM compound): 50%
CN(C(=O)[C@@H]1CC[C@H](N2Cc3cc(Oc4ccccc4)ccc3N=C2N)C1)C1CCCCC1 [Compound 77]	<30	–	–	–	% Inhibition ([1]; 10 μM compound): <30%
NC1=Nc2ccc(Oc3ccccc3)cc2CN1C(CNC(=O)C1CCCCC1)c1ccccc1 (centres unmarked) [Compound 342]	119	–	–	–	% Inhibition ([1]; 0.3 μM compound): 50%; % Inhibition ([1]; 1 μM compound): 93%
CCN(CC)CCN1Cc2cc(Oc3ccccc3)ccc2N=C1N [Compound 79]	<30	–	–	–	% Inhibition ([1]; 10 μM compound): <30%

SMILES	% Inhibition ([1]; 3 μM compound) [%]	% Inhibition (FS) ([2]; 3 μM test compound) [%]	% Inhibition (FS) ([2]; 0.3 μM test compound) [%]	% Inhibition (FS) ([2]; 1 μM test compound) [%]	also measured
CCOC(=O)CCN1Cc2cc(Oc3ccccc3)ccc2N=C1N [Compound 65]	<30	–	–	–	% Inhibition ([1]; 10 μM compound): <30%
NC1=Nc2ccc(-c3cnc4ccccc4c3)cc2CN1CCNC(=O)C1CCCC1 [Compound 671]	–	–	–	–	% Inhibition (FS) ([2]; 0.3 μM compound, FS1 substrate): <30%; % Inhibition (FS) ([2]; 1 μM compound, FS1 substrate): 30%; % Inhibition (FS) ([2]; 3 μM compound, FS1 substrate): <30%
CCCC(CCC(=O)NC1CCCCC1)N1Cc2cc(Oc3ccccc3)ccc2N=C1N (centres unmarked) [Compound 129]	–	113	–	–	% Inhibition (FS) ([2]; 10 μM test compound): 113%
CN(C(=O)c1cccc(CN2Cc3cc(-c4ccc5[nH]ccc5c4)ccc3N=C2N)c1)C1CCCCC1 [Compound 175]	–	37	<30	<30	–
Cc1ccccc1-c1ccc2c(c1)CN(CCNC(=O)C13CC4CC(CC(C4)C1)C3)C(N)=N2 [Compound 658]	–	100	<30	62	–
CC(C)(C)NS(=O)(=O)c1ccccc1-c1ccc2c(c1)CN(CCNC(=O)C1CCCCC1)C(N)=N2 [Compound 542]	–	73	<30	<30	–
CCCC=Cc1ccc2c(c1)CN(CCNC(=O)CC1CCCC1)C(N)=N2 [Compound 580]	–	<30	<30	<30	–
CC(=O)Nc1cccc(Oc2ccc3c(c2)CN(Cc2cccc(C(=O)N(C)C4CCCCC4)c2)C(N)=N3)c1 [Compound 229]	–	<30	<30	35	–
CC(C)CCC(=O)N1CCCC(N2Cc3cc(Oc4ccccc4)ccc3N=C2N)C1 (centres unmarked) [Compound 613]	–	<30	36	31	–
Cc1cc(C(=O)NCCN2Cc3cc(-c4cccc(CO)c4)ccc3N=C2N)c(C)o1 [Compound 589]	–	<30	<30	<30	–
COc1ccccc1-c1ccc2c(c1)CN(CCNC(=O)CCCN)C(N)=N2 [Compound 494]	–	<30	<30	<30	–
NC1=Nc2ccc(-c3ccccc3Cl)cc2CN1CCNC(=O)C1CCOCC1 [Compound 689]	–	–	–	–	% Inhibition (FS) ([2]; 0.3 μM compound, FS1 substrate): 33%; % Inhibition (FS) ([2]; 1 μM compound, FS1 substrate): 82%
COc1ccc2c(c1)C(CC(=O)N(C)C1CCCCC1)CC2N1Cc2cc(Oc3ccccc3)ccc2N=C1N (centres unmarked) [Compound 146]	–	<30	–	–	% Inhibition (FS) ([2]; 10 μM test compound): 39%
CCCC(=O)NCCN1Cc2cc(-c3ccccc3Cl)ccc2N=C1N [Compound 652]	–	91	31	63	–
CN(C(=O)CCC(CO)N1Cc2cc(Oc3ccccc3)ccc2N=C1N)C1CCCCC1 (centres unmarked) [Compound 557]	–	<30	<30	<30	–
NC1=Nc2ccc(-c3ccccc3Cl)cc2CN1CCNC(=O)C1CCC1 [Compound 649]	–	95	34	65	–
CC1CCCCN1C(=O)CCCC(CCC(=O)N1CCCCC1C)N1Cc2cc(Oc3ccccc3)ccc2N=C1N (centres unmarked) [Compound 504]	–	96	<30	31	–
CC(C)(C)C(=O)Nc1cccc(CN2Cc3cc(Oc4ccccc4)ccc3N=C2N)c1 [Compound 290]	–	<30	<30	<30	–
CN(C(=O)CC(C1CCCCC1)N1Cc2cc(Oc3ccccc3)ccc2N=C1N)C1CCCCC1 (centres unmarked) [Compound 199]	–	82	<30	<30	–
